Where two headings read alike, the source gives them in different places.

Series [1] in a line: Plasma pharmacokinetics, AUC of free drug in CD-1 nude mice. The settings on record: for AUC: CD-1 nude, mouse, ip. Type of series: in vivo, mouse. As for the experimental part: The area under the concentration time curve for free drug (AUCf) in mouse plasma at the maximum tolerated dose (MTD) was determined either experimentally or by calculation.
The compound was formulated in a suitable vehicle (e.g. 0.9% saline, 5% DMSO in 0.9% saline) and administered intraperitoneally (i.p.) as single dose to CD-1 nude mice in a dose-escalating format using 1.33-fold dose increments.
The compound was administered to CD-1 nude mice in a suitable formulation as a single dose (i.p.) at the MTD. Blood samples were collected by retro-orbital sinus bleed or cardiac puncture after which the mouse was culled, or by serial bleeding from the tail vein. Typical time points were 15, 30, 60, and 120 min after administration. Blood was collected in a heparinised container and centrifuged to collect the plasma. The plasma concentration of the compound was determined by HPLC or LCMS using suitable sample preparation and analytical methods. Calibration was done with internal or external standards. The area under the concentration-time curve (AUC) for total (free plus bound) drug was calculated using the linear/log trapezoidal rule and extrapolation to infinity OR standard non-compartmental (PK) modelling.
Plasma protein binding was measured by the determination of the free fraction (FF) by equilibrium dialysis at 37° C. in 50% (v/v) mouse plasma in phosphate-buffered saline (pH 7.4), using a single drug concentration at or near the observed or extrapolated maximum concentration in plasma (Cmax). Compound concentrations after dialysis were determined by HPLC or LCMS.
AUCf for the compound administered as a single dose (i.p.) to CD-1 nude mice at the MTD can be estimated using the following regression equation: Log10(AUCf)=a+b×log Pneutral+c×log10(IC50)+d×log10(HCR)+e×log10(DMCL)+f×log10(kmet)+g×(log Pneutral)^2 where the coefficients are described in the following table: […]

The subject of series [2] is hypoxic cells in HT29 tumours. As to the kind of experiment: HT29 excision assay (drug after 20 Gy radiation, clonogenic survival). It counts as in vivo, human. The settings on record: for HT29 log kill: log10 kill of hypoxic cells in HT29 tumours, additional to radiation alone, MTD or 75% of MTD, Table 2. The source says:
In order to test the validity of this PK/PD model as a tool for predicting the antitumour activity of TPZ analogues, the inventors determined the key PK/PD parameters for 13 TPZ analogues, and TPZ itself, for the HT29 human colon carcinoma cell line. These parameters were then used to calculate the expected killing in hypoxic regions of HT29 tumours following a single intraperitoneal dose of the compounds at their maximum tolerated dose. The results of this calculation were then compared with measured killing of hypoxic cells in HT29 tumours, determined by administering the compounds immediately (within 5 min) after gamma irradiation (cobalt 60, 20 Gy) to sterilise oxygenated cells in the tumours. Tumours were removed 18 hours later and the number of surviving cells determined by clonogenic assay. The measured PK/PD parameters, model prediction (using the above 3D microvascular network), and experimentally determined hypoxic cell kill is shown in Table 1, and the relationship between predicted and measured cell kill in FIG. 4. The prediction is statistically highly significant (p=0.001, Fisher exact test). […] If the extravascular transport component was excluded from the model, the R^2 for this regression was only 0.28 and the relationship was not statistically significant.
Animals were treated with radiation alone (RAD, 20 Gy whole body); RAD+TPZ (316 μmol/kg); compound 3 (562 μmol/kg); RAD+compound 3 (562 μmol/kg). Tumours were excised 18 hr after treatment and clonogenic survival determined by staining colonies 14 days later. Each symbol represents a separate tumour. p<0.01 (one way ANOVA with Dunnett's test) for RAD+compound 3 and for RAD+TPZ versus RAD only. Horizontal lines are the historical means for untreated controls (upper line) and 20 Gy radiation only (lower line).
Compounds were evaluated with single dose radiation using s.c. HT29 tumors (average of two largest diameters 7-10 mm) grown by inoculating 10^7 cells (obtained by enzymatic dissociation of multicellular spheroids). Drugs were administered as single i.p. doses at their MTD with the following groups in each experiment. A: vehicle control, B: test drug, C: Radiation (20 Gy, cobalt-60, whole body irradiation), D: TPZ (316 μmol/kg) 5 min after radiation, E: Test drug 5 min after radiation. Each group included 3 (A, B) or 5 (C-E) mice. Tumors were excised 18 hr after treatment and plated to determine clonogenicity. Hypoxic cytotoxicity is determined by the difference in surviving fraction between groups C and E, while comparison of A and B evaluates oxic cell killing. Total yield of clonogens was used as the key parameter if cell yields were affected by treatment. Results of this assay are illustrated for compound 3 (and TPZ) in FIG. 5.

Setting [3] is: plasma, AUC of free drug, single i.p. dose at maximum tolerated dose, mice, Table 1, read-out: AUCf.
The mark [4] stands for this setting: plasma, mouse plasma, free drug, at the MTD or 75% of the MTD, Table 2, read-out: AUC.
Where [5] appears, read: AUC of free drug, single i.p. dose at maximum tolerated dose, mice, Table 1.

Take `CN(CCCNC(=O)c1cccc2ccc(-c3ccncc3)nc12)CCCNc1n[n+]([O-])c2ccccc2[n+]1[O-]` [M]: the values for the AUC in series [1] (setting [3]) and in series [1] (setting [4]) were 0.9 µM·h and 1.2 µM·h, respectively. This compound gave an HT29 log kill in series [2] of 0.138.

Take `Nc1n[n+]([O-])c2ccccc2[n+]1[O-]` [A, tirapazamine, reference compound]: the AUC came to 148 µM·h in series [1] (in vivo, AUC) and 148 µM·h in series [1] (in vivo, AUCf). This compound displayed an HT29 log kill in series [2] of 1.17.

Regarding `Cc1ccc2c(c1)[n+]([O-])c(NCCN(C)C)n[n+]2[O-]` [H, N^1,N^1-Dimethyl-N^2-(6-methyl-1,4-dioxido-1,2,4-benzotriazin-3-yl)-1,2-ethanediamine], the AUCf in series [1] (setting [5]) is 69.0 µM·h. The AUC in series [1] (setting [4]) turned out to be 67.8 µM·h. The same compound came in with an HT29 log kill in series [2] of 1.001. Also, the “activity against hypoxic cells in HT29 tumours” value in series [2] (relative to radiation alone) is “significant activity”.

On to `CN(CCCNC(=O)c1cccc2cc3ccccc3nc12)CCCNc1n[n+]([O-])c2ccccc2[n+]1[O-]` [L], for which the AUC in series [1] (setting [3]) was 3.6 µM·h; in series [1] (setting [4]), 3.3 µM·h. The compound also yielded an HT29 log kill in series [2] of −0.051.

As to `Cc1ccc2c(c1)[n+]([O-])nc(NCCN(C)C)[n+]2[O-]` [F, 7-Methyl-N-[2-(dimethylamino)ethyl]-1,2,4-benzotriazin-3-amine 1,4-Dioxide], the AUC in series [1] (setting [3]) was 3.5 µM·h; in series [1] (setting [4]), 3.9 µM·h. Moreover, the HT29 log kill in series [2] was 0.196.

`[O-][n+]1nc(NCCCCCCNc2c3ccccc3nc3ccccc23)[n+]([O-])c2ccccc21` [K]: in series [1] (setting [3]), the AUC is 0.042 µM·h. In series [2], the HT29 log kill was found to be 0.009.

Regarding `Cc1ccc2c(c1)[n+]([O-])c(N)n[n+]2[O-]` [B, 6-Methyl-1,2,4-benzotriazin-3-amine 1,4-Dioxide], the AUCf in series [1] (setting [5]) was found to be 188.7 µM·h. In series [1] (setting [4]), the AUC is 216 µM·h. In series [2], this compound returned an HT29 log kill of 2.165.

On to `COCCc1n[n+]([O-])c2ccccc2[n+]1[O-]` [J], for which the values for the AUC in series [1] (setting [3]) and in series [1] (setting [4]) were 79 µM·h and 83.5 µM·h, respectively. In series [2], this compound registered an HT29 log kill of 0.8.

Take `Cc1ccc2c(c1)[n+]([O-])c(NCCCN(C)CCCNC(=O)c1cccc3cc4ccccc4nc13)n[n+]2[O-]` [N]: the AUC came out at 1.3 µM·h in series [1] (setting [3]) and 1.6 µM·h in series [1] (setting [4]). The HT29 log kill in series [2] is listed as 0.027.

In turn, `CCCN(CCC)CCNc1n[n+]([O-])c2ccccc2[n+]1[O-]` [G] displayed an AUCf in series [1] (setting [5]) of 7.2 µM·h. The AUC in series [1] (setting [4]) came out at 7.1 µM·h. Moreover, the HT29 log kill in series [2] is 0.248.

Take `Nc1n[n+]([O-])c2cc(Cl)ccc2[n+]1[O-]` [C, 7-Chloro-1,2,4-benzotriazin-3-amine 1,4-Dioxide]: the values for the AUC in series [1] (setting [3]) and in series [1] (setting [4]) were 1.9 µM·h and 2.7 µM·h, respectively. The compound also yielded an HT29 log kill in series [2] of −0.007.

With `Nc1n[n+]([O-])c2c(Cl)cccc2[n+]1[O-]` [D, 8-Chloro-1,2,4-benzotriazin-3-amine 1,4-Dioxide], the AUC in series [1] (setting [3]) was determined as 0.8 µM·h; in series [1] (setting [4]), 0.7 µM·h. Also, in series [2], the HT29 log kill is on record as −0.154.

`CCc1n[n+]([O-])c2ccccc2[n+]1[O-]` [I]: the AUC came out at 141 µM·h in series [1] (setting [3]) and 139 µM·h in series [1] (setting [4]). Moreover, the HT29 log kill in series [2] is on record as 0.886.

On to `CS(=O)(=O)c1ccc2c(c1)[n+]([O-])nc(N)[n+]2[O-]` [E, 7-(Methylsulfonyl)-1,2,4-benzotriazin-3-amine 1,4-Dioxide], for which the AUC in series [1] (setting [3]) and in series [1] (setting [4]) was 15.6 µM·h throughout. In series [2], this compound registered an HT29 log kill of −0.028.

Source of the values: patent US7816521B2, “1,2,4-benzotriazine-1,4-dioxides” (Auckland Uniservices Limited, priority 2004, dated 2010).
